Source: ChEMBL document CHEMBL1127714, “Vasorelaxant activity of 2-fluoromethylbenzopyran K+ channel openers” (Bioorg Med Chem Lett, 1994)

Tests used:
[1] = species: Rattus norvegicus; experiment: Intrinsic activity determined in rat aorta; type: functional
[2] = species: Rattus norvegicus; experiment: Negative logarithm of the molar concentration required to relax rat aorta precontracted with 30 mM KCL by 50% of intrinsic activity; type: functional

EC50 [2] [nM] | SMILES | IA [1] [%]
24.5 | N#Cc1ccc2c(c1)C(n1ccccc1=O)=CC(CF)(CF)O2 | 75.7
6.31 | O=C1CCCN1[C@@H]1c2cc(C(F)(F)C(F)(F)F)ccc2OC(CF)(CF)[C@H]1O | 77.6
5.62 | O=C1CCCCN1C1=CC(CF)(CF)Oc2ccc(C(F)(F)C(F)(F)F)cc21 | 72
17.4 | O=C1CCCCN1C1=CC(CF)(CF)Oc2ccc([N+](=O)[O-])cc21 | 69.7
12 | O=c1ccccn1[C@@H]1c2cc(C(F)(F)C(F)(F)F)ccc2OC(CF)(CF)[C@H]1O | 82.8
148 | N#Cc1ccc2c(c1)[C@@H](n1ccccc1=O)[C@H](O)C(CF)(CF)O2 | 78.7
102 | N#Cc1ccc2c(c1)C(N1CCCC1=O)=CC(CF)(CF)O2 | 74.4
28.8 | O=c1ccccn1[C@@H]1c2cc([N+](=O)[O-])ccc2OC(CF)(CF)[C@H]1O | 74.5
2.75 | O=C1CCCCN1[C@@H]1c2cc([N+](=O)[O-])ccc2OC(CF)(CF)[C@H]1O | 63.3
8.91 | N#Cc1ccc2c(c1)[C@@H](N1CCCCC1=O)[C@H](O)C(CF)(CF)O2 | 74.9
7.76 | O=C1CCCN1C1=CC(CF)(CF)Oc2ccc([N+](=O)[O-])cc21 | 74.3
85.1 | N#Cc1ccc2c(c1)[C@@H](N1CCCC1=O)[C@H](O)C(CF)(CF)O2 | 78
3.89 | O=C1CCCCN1[C@@H]1c2cc(C(F)(F)C(F)(F)F)ccc2OC(CF)(CF)[C@H]1O | 65.6
1.7 | [O-][n+]1ccccc1C1=CC(CF)(CF)Oc2ccc(C(F)(F)C(F)(F)F)cc21 | 68.2
 | CC1(C)Oc2ccc(C#N)cc2[C@@H](N2CCCC2=O)[C@@H]1O [CROMAKALIM] | 74.7
2.45 | O=c1ccccn1C1=CC(CF)(CF)Oc2ccc([N+](=O)[O-])cc21 | 64.9
2.95 | O=c1ccccn1C1=CC(CF)(CF)Oc2ccc(C(F)(F)C(F)(F)F)cc21 | 69.2
1.51 | O=C1CCCN1C1=CC(CF)(CF)Oc2ccc(C(F)(F)C(F)(F)F)cc21 | 68.6
24 | O=C1CCCN1[C@@H]1c2cc([N+](=O)[O-])ccc2OC(CF)(CF)[C@H]1O | 72.7
 | CC(N/C(=N\C#N)Nc1ccncc1)C(C)(C)C (configuration not stated) [PINACIDIL ANHYDROUS] | 91.9
30.2 | CC1(C)C=C(n2ccccc2=O)c2cc(C#N)ccc2O1 [BIMAKALIM] | 70.2
162 | N#Cc1ccc2c(c1)C(N1CCCCC1=O)=CC(CF)(CF)O2 | 68.7
